The assay relates to male Sprague Dawley rats. Put plainly: Forced swim test (FST). It counts as in vivo, rat. Particulars: for percent time spent immobile: 30 min before 5-min test. The procedure: Male Sprague Dawley rats (Charles River Laboratories) weighing 180–200 g on arrival, were used for all behavioral studies, which took place at Melior Discovery (Exton, PA, USA). Rats acclimated to their home cages for at least 1 week before testing, were maintained in a controlled environment on a 12 h light/dark cycle, with no more than 2 rats per cage. Animals received ad libitum access to standard rodent chow and water and were assigned randomly to treatment groups. All animal use and procedures were in accordance with established protocols approved by the Melior IACUC committee, Melior Standard Operation Procedures (SOP), and Transcend Therapeutics. Distinct cohorts of animals were used for each experiment/Figure presented in this manuscript.
Methylone HCl (0.5–30 mg/kg; Cayman Chemical) or Fluoxetine HCl (10 mg/kg; Sigma-Aldrich) were formulated in sterile 0.9% saline vehicle before IP administration. Control animals received saline vehicle. Methylone or saline was administered 30 min prior to FST or OFT testing sessions. Fluoxetine or saline were administered 23.5, 5, and 1 h prior to testing, consistent with previous studies ([19]).
All studies were performed and scored by an experimenter blind to treatment group according to standard protocols at Melior Discovery (Exton, PA, USA) and based on published “modified FST” procedures ([20]). Briefly, rats were placed in a circular plexiglass container (29.2 cm diameter, 49.5 cm height) filled with water to a depth of 30 cm so rats could not support themselves by touching the bottom of the tank. Water was maintained at 22–25°C and was changed for every animal. Day 1 (Training) consisted of a 15 min acclimation trial, and Day 2 (Testing, 24 h later) consisted of the 5 min test. A time sampling procedure was employed where animals were observed every 5 s for the duration of the test session (60 counts or 5 min) and scored for immobility (defined as the failure to struggle), swimming (defined as a circular movement around the tank), or climbing (defined as an upward escape behavior). Data are expressed as the percent time spent immobile, swimming, or climbing for the 5-min testing session (e.g., the number of immobility counts divided by 60). Therefore, to extrapolate these values to time spent immobile in minutes, one can multiply the percent time immobile by 5 min.

The structures appear in SMILES notation.

Consider `CNC(C)C(=O)c1ccc2c(c1)OCO2` (centres unmarked) [methylone, 3,4-methylenedioxy-N-methylcathinone], for which, where the note is “after a single dose of methylone”, the “reduced immobility relative to Vehicle controls” value is 78–98%. Besides, the “duration of antidepressant-like effect” value (after a single dose of methylone 15 mg/kg IP) is given as “at least 72 h”. Moreover, for the setting “methylone 5 mg/kg IP, Vehicle 63.9 ± 2.7%”, the “percent time spent immobile” value came to 31.9 ± 4.7%. For the same compound, where the note is “methylone 15 mg/kg IP once, 30 min, 24, 72 h, Figure 3D”, the “climbing vs vehicle on retest” value was “small but significant effect of methylone on climbing was observed at 30 min only”. Also, under “methylone 15 mg/kg IP once, 30 min, 24, 72 h, Figure 3F”, the “swimming vs vehicle on retest” value is “significantly increasing swimming at all three time points tested”. Also, the “immobility vs vehicle on retest” value (methylone 15 mg/kg IP once, tested 30 min, 24 and 72 h, Figure 3B) is “reducing immobility significantly at all-time points”. For the same compound, for the setting “methylone 0.5–30 mg/kg IP dose response, 30 min before, Figure 1D”, the “climbing behavior vs controls” value is listed as “increased only by low to mid doses of methylone (5–10 mg/kg)”. Moreover, where the note is “methylone 10–15 mg/kg IP, Vehicle 63.9 ± 2.7%”, the “percent time spent immobile” value was 4.2 ± 1.3%. For the same compound, the “immobility at highest doses” value (methylone 20–30 mg/kg, not statistically significant) is given as “trend toward less reduction in immobility”. Besides, the “climbing compared to vehicle” value (methylone alone 5 mg/kg IP 30 min before, Figure 6C) is “significantly increased climbing”. For the same compound, the “% time immobile” value (methylone alone, 15 mg/kg, Figure 1B, Vehicle 63.9 ± 2.7%) was found to be 4.2 ± 1.8%. Moreover, under “methylone dose response”, the “dose of first significant effect on immobility” value stood at 5 mg/kg and the “dose of maximal effect on immobility” value worked out at 10 mg/kg. The “swimming behavior vs controls” value (methylone mid to high doses, 30 min before, Figure 1F) is “significantly increased”. The “change in immobility vs vehicle control” value (methylone single low dose 5 mg/kg IP, 30 min before) is recorded as roughly 50%. The compound also yielded an onset of effect (single dose of methylone) of no more than 30 min. The “reduction of immobility vs. controls” value (single dose of methylone (5–30 mg/kg) 30 min prior to testing) is reported as roughly 95%.
